Results from article PMC9124866, “Structure-Activity Relationships of Dopamine Transporter Pharmacological Chaperones” (Frontiers in Cellular Neuroscience, 2022).
Where a name gives a salt, the structure may show the parent alone. Read-outs that look alike come from different tables or passages of the source.

What was measured:
WT DAT (YFP-HA-DAT) = biological target: T1, WT DAT (YFP-HA-DAT) (Homo sapiens, UniProt Q01959); test: Western blot of mature WT DAT protein levels; format: cell-based; conditions: overnight 100 μM
T1 construct: expressed in transfected cells; host or cells: HEK293
T1 sequence (Q01959 whole entry): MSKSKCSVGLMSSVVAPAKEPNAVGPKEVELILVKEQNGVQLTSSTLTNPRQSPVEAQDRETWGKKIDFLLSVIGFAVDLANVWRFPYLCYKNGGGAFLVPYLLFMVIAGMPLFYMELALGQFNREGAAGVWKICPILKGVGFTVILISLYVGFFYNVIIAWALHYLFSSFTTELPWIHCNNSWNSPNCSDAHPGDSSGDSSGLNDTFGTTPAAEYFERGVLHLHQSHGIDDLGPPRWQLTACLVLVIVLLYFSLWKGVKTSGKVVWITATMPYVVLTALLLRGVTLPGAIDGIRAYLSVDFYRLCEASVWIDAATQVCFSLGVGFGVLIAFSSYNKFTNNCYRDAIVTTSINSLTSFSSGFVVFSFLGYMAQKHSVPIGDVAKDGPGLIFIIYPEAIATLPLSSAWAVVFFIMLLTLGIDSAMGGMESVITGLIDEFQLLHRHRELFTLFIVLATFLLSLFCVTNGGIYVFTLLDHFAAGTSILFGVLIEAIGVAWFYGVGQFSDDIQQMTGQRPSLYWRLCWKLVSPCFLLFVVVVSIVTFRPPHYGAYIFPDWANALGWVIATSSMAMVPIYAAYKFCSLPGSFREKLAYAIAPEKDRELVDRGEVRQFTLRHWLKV
Method: (§1) Cells (1 × 10^6 cells/well) were seeded onto a 6-well plate and incubated for 24 h. Cells were then treated with drugs and incubated for 16 h. After the incubation period, cells were lysed in RIPA buffer supplemented with protease inhibitors (working concentrations: pepstatin A, 5 μg/mL; leupeptin, 10 μg/mL; aprotinin, 1.5 μg/mL; benzamidine, 0.1 μg/mL; PMSF, 0.1 mM) on ice. At 4°C, cell lysates were gently shaken for 15 min followed by centrifugation at 15,000 rpm for 15 min to pellet debris. The Pierce BCA protein assay kit (Thermo Fisher Scientific, Canada) was used to determine the protein concentration of the supernatant. To reach a concentration of 40 μg of protein per 20 μL, samples were diluted in fresh RIPA buffer with 12.5% Laemmli sample buffer and 2.5% β-Mercaptoethanol prior to being heated to 55°C. The protein was then loaded on a 7.5 or 10% SDS-PAGE gel and run at 100 V for approximately an hour or until the dye front reached the bottom of the gel. Next, protein was transferred to a PVDF membrane at 22 V for 16 h or 100 V for 1 h. Blots were blocked with LI-COR blocking buffer for 1 h and incubated for 1 h at room temperature with rabbit anti-GFP (1:1,000 dilution; Life Technologies, cat#A11122). After washing three times with TBST, blots were incubated with goat anti-rabbit IRDye-680RD secondary antibody (1:15,000; LI-COR, cat#926-68071). As a loading control, blots were incubated with mouse anti-GAPDH (1:5,000, Sigma-Aldrich, Canada, cat#G8795) prior to secondary antibody goat anti-mouse IRDye-800GR (1:5,000 dilution, Rockland, Limerick, PA, cat#610-132-007). All antibodies were diluted in LI-COR blocking buffer. Additionally, REVERT total protein staining (LI-COR, Lincoln, NE) was used as a loading control. […] Mature, fully glycosylated DAT (mDAT = 110 kDa) and immature, ER-resident DAT (iDAT = 75 kDa) were visualized using the Odyssey Imaging System (LI-COR, Lincoln, NE) and Image Studio Version 5.2 software (Supplementary Figure 1).
(§2) We next assessed whether drugs that increase DAT surface expression also increase total protein levels of DAT. Cells expressing YFP-HA-DAT were incubated with select test compounds and DAT protein levels were examined by western blot. The effects of the compounds were assessed on WT DAT and K590A DAT. The K590A mutant is a well-characterized ER-retained, trafficking-deficient DAT mutant ([Miranda et al., 2004]) that can be rescued by pharmacological chaperones ([Beerepoot et al., 2016]).
(§3) FIGURE 5 Effect of noribogaine, tetrahydroharmine, PAL-594, bicifadine, and RTI-20 on WT and K590A DAT expression. […] (B) Quantification of WT mDAT protein levels. […] (D) Quantification of K590A mDAT protein levels. […]

YFP-HA-βlac-DAT [1] = biological target: T2, YFP-HA-βlac-DAT (Homo sapiens, UniProt Q01959); test: β-lactamase (βlac) surface expression assay; format: cell-based; conditions: assumed effective EMax
T2 sequence (Q01959 1-171 limits assumed): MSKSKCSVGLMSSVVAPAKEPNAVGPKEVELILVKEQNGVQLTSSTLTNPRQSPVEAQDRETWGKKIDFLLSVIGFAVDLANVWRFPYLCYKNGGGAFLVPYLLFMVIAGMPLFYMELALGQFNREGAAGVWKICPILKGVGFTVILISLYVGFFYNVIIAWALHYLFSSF
T2 sequence (Q01959 237-620 limits assumed): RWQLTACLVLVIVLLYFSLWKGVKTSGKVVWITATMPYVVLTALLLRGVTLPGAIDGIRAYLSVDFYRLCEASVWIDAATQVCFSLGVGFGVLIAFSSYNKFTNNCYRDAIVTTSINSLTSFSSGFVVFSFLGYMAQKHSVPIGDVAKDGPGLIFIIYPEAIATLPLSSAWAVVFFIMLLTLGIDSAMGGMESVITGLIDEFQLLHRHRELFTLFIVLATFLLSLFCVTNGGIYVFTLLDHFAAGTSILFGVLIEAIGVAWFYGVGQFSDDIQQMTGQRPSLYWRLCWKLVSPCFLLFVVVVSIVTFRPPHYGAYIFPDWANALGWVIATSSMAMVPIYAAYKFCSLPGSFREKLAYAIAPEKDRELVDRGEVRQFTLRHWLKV
Method: The βlac surface expression assay was performed by following the method outlined in [Lam et al. (2013)] and [Beerepoot et al. (2015], [2016)]. The assay substrate nitrocefin (BD biosciences) was dissolved in dimethyl sulfoxide (DMSO) at a concentration of 10 mM and frozen at −80°C. Immediately before use, it was thawed and diluted to a final concentration of 100 μM in phosphate buffered saline (PBS). Cells (1 × 10^5/well) were seeded into a poly-D-lysine-coated 48-well plate and incubated for 24 h, prior to drug treatment. Drugs were added to individual wells at varying concentrations and incubated for 16 h. Subsequently, the media was aspirated, and the cells were washed twice with PBS. After removal of the final PBS wash, 200 μL of the nitrocefin solution was added to each well and the absorbance was immediately read. The EPOCH microplate spectrophotometer (BioTek) was used to measure absorbance (486 nm) for each well every minute for 30 min. The rate of reaction (slope of the curve) was used as the readout for the assay ([Beerepoot et al., 2015]). To determine suitable concentration ranges for each drug, they were dissolved in PBS or DMSO at the highest concentration possible. From here, the solutions were serial diluted 1/10 to yield 8 different concentrations. βLAC cells were then treated with the varying drug concentrations and cell viability was recorded using light microscopy. For additional measure, nitrocefin was added and the absorbance was read. For certain cases, Trypan Blue was used to quantitatively differentiate increased cell death from reduced cell division. […] Five or six doses were generally used in subsequent dosing experiments, starting at the highest non-toxic concentration.
Data analysis was performed using GraphPad Prism (GraphPad Software, La Jolla, CA). Linear regression analysis was performed on βLAC time points to determine the slope, thus the rate of reaction, for comparison. Furthermore, the slope was also used to determine the degree of dopamine uptake in the dopamine uptake assays. Non-linear regression, fitting to the log(agonist) vs. response and log(inhibitor) vs. response model curve, was used to determine dose-response relationships of surface expression and uptake assays, respectively. One-way ANOVA with Dunnett’s post hoc-test was used for the β-lactamase assay and one-way ANOVA with Bonferroni correction was used for western blot analysis.
Among these were RTI-1, RTI-2, RTI-5, RTI-6, RTI-11, RTI-20, and PAL-1007. […] The EMax values of all the analyzed drugs are included in Figure 1.
The pharmacological chaperone ability of the 15 ibogaine and tryptamine analogs, shown in Figure 3, were measured using the βlac surface expression assay. HEK cells expressing YFP-HA-βlac-DAT were incubated overnight with these compounds at concentrations varying by log and half-log dilutions, starting at 100 μM final concentration. […] Furthermore, it was important to determine whether the β-carboline analogs could also elicit a chaperone effect because they are not classified as DAT ligands ([Cao et al., 2007]). […] Removing the nitrogen from the ring reduced efficacy as observed with frovatriptan (103 ± 1.4%). […] Evodiamine (54 ± 1.7%) had no chaperone ability and caused a substantial reduction in the surface expression of DAT. Dose-response curves were generated to assess the pharmacological chaperone potencies of select compounds (Figure 4).

K590A DAT = biological target: T3, K590A DAT (Homo sapiens, UniProt Q01959, K590A); test: Western blot of mature K590A DAT protein levels; format: cell-based; conditions: overnight treatment
T3 construct: expressed in transfected cells; host or cells: HEK293
T3 sequence (Q01959 whole entry K590A): as the sequence (Q01959 whole entry) above, with K590A counted along it
Method: as §1, §2, §3

YFP-HA-βlac-DAT [2] = biological target: T2, YFP-HA-βlac-DAT; parameters: method as in Beerepoot et al., 2016; conditions: previous experiments; ref Beerepoot et al., 2016; cited from earlier work
DAT [3] = biological target: T4, DAT (Homo sapiens, UniProt Q01959); conditions: read-out: Ki, DAT binding; ref Carroll et al., 2009; cited from earlier work
T4 construct: expressed in transfected cells
T4 sequence (Q01959 whole entry): as the sequence (Q01959 whole entry) above

DAT [4] = biological target: T4, DAT; conditions: read-out: IC50, dopamine uptake inhibition; ref Carroll et al., 2009; cited from earlier work
DAT [5] = biological target: T4, DAT; test: Dopamine uptake inhibition dose response of hit compounds (Figure 6); format: cell-based; conditions: doses 1 nM to 100 μM, normalized to vehicle
Method: Dopamine uptake inhibition was conducted using the Neurotransmitter Transporter Uptake Assay Kit (Molecular Devices, prod#R8173). Cells (1 × 10^5/well) were seeded into 96-well plates and incubated for 24 h. The cells were subjected to overnight drug treatment. The following day, wells were washed and incubated for 30 min with a mixture of 1X Hank’s Balanced Salt Solution (HBSS) and 0.1% Bovine Serum Albumin (BSA) Buffer. Dopamine uptake inhibitors were added during the incubation period. Following the incubation, the fluorescent dye was added, and the plate was immediately transferred to the bottom-read fluorescence microplate reader (Spectramax M3, Molecular Devices) for kinetic read-mode. The assay reads the amount of fluorescent activity which increases as fluorescent dye molecules are transported into the cells by the DAT. The read-out for this assay is the slope which equals the fluorescent measurements/time, ultimately denoting the uptake rate.
Data analysis was performed using GraphPad Prism (GraphPad Software, La Jolla, CA). Linear regression analysis was performed on βLAC time points to determine the slope, thus the rate of reaction, for comparison. Furthermore, the slope was also used to determine the degree of dopamine uptake in the dopamine uptake assays. […]

[6] = HEK293, HEK cells expressing YFP-HA-βlac-DAT, overnight (16 h) incubation, up to 100 μM, normalized to vehicle, read-out: EMax (%), WT DAT surface expression
[7] = HEK293, read-out: EMax (%), WT DAT surface expression, HEK cells expressing YFP-HA-βlac-DAT, overnight (16 h) incubation, up to 100 μM, normalized to vehicle

Row | Compound | mature WT DAT (mDAT) protein levels (WT DAT (YFP-HA-DAT)) | Emax (YFP-HA-βlac-DAT [1]; [6]) [%] | K590A DAT (mDAT) protein levels (K590A DAT) | Emax (YFP-HA-βlac-DAT [1]; [7]) [%] | other results
1 | Cc1ccc(C(=O)C(C)NC(C)(C)C)cc1Cl (stereo not shown) [RTI-20] | significantly increase | 147 ± 8 |  |  | 
2 | COc1ccc2c3c([nH]c2c1)C(C)NCC3 (stereo not shown) [Tetrahydroharmine, tetrahydroharmine] |  |  | statistically significant effect | 137 ± 6.8 | 
3 | CC(NC(C)(C)C)C(=O)c1cccc(Cl)c1 (stereo not shown) [Bupropion, Bupropion hydrochloride, reference compound] |  |  |  | 144 ± 7.7 | previously reported increase of WT DAT surface expression (EMax) (YFP-HA-βlac-DAT [2]): 137%
4 | ibogaine [reference compound] |  |  |  |  | EMax (%), WT DAT surface expression (YFP-HA-βlac-DAT [1]; HEK cells expressing YFP-HA-βlac-DAT, overnight (16 h) incubation, up to 100 μM, normalized to vehicle): 222 ± 7.9%; previously reported increase of WT DAT surface expression (EMax) (YFP-HA-βlac-DAT [2]): 187%
5 | Cc1ccc(C23CNCC2C3)cc1 (stereo not shown) [Bicifadine, bicifadine] | significantly increase |  | statistically significant effect | 149 ± 15 | 
6 | Cc1ccc(C(=O)C(C)NC(C)(C)C)cc1 (stereo not shown) [RTI-5] |  | 140 ± 5.5 |  |  | Ki (DAT [3]): > 10 µM; IC50 (DAT [4]): 6.84 µM
7 | CC1NCCOC1c1cccc(Cl)c1 (stereo not shown) [PAL-594] | significantly increase | 166 ± 8.7 | statistically significant effect |  | 
8 | CCCC(NC(C)(C)C)C(=O)c1cccc(Cl)c1 (stereo not shown) [RTI-12] |  | 113 ± 6.3 |  |  | maximal dopamine uptake inhibition (DAT [5]): 96%
